EC50 data for 1 compound are collected here from publication PMC10598265, “Effects of the novel selective κ-opioid receptor agonist NP-5497-KA on morphine-induced reward-related behaviors” (Scientific Reports, 2023).

What is called EC50 is the concentration that produces a half-maximal response. Higher therefore signals a need for much substance.

Structures are written as SMILES.

One experiment deals with T1, DOP (δ-opioid receptor) (Homo sapiens, UniProt P41143).
T1 construct: gene OPRD1; full-length receptor stably expressed in CHO-K1 cells (ChanTest)
T1 sequence (P41143 whole entry): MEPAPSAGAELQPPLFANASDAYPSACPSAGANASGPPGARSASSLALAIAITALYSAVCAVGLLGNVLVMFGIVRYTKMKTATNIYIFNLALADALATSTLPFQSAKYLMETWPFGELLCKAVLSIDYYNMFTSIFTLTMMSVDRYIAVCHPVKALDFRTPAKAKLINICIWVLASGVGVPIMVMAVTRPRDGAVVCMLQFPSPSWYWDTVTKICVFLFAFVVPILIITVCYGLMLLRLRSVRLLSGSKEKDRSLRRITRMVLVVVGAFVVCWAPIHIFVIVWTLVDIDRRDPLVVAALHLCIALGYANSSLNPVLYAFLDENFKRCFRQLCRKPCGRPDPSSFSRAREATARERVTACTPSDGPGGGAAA
The experiment in a line: TR-FRET cAMP assay (LANCE Ultra), inhibition of forskolin-stimulated cAMP. It is filed as cell-based. From the text: TR-FRET cAMP assay (LANCE Ultra), inhibition of forskolin-stimulated cAMP on DOP (δ-opioid receptor)
For orientation: In TR-FRET formats the signal depends on donor and acceptor labels being close together.

The target in the next experiment is T2, MOP (μ-opioid receptor) (Homo sapiens, UniProt P35372).
T2 construct: gene OPRM1; full-length receptor stably expressed in CHO-K1 cells (ChanTest)
T2 sequence (P35372 whole entry): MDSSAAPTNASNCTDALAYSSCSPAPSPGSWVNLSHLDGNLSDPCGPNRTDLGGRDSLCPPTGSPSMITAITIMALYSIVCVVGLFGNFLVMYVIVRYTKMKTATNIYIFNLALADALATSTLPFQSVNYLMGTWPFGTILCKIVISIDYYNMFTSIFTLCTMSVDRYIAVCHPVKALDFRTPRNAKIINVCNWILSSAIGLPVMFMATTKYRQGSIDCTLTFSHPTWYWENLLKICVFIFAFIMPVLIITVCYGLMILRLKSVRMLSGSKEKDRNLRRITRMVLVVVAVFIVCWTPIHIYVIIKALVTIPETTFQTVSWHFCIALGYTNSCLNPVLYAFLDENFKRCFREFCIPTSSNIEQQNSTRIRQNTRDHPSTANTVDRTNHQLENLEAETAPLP
The experiment is described as above. In kind it is cell-based. An excerpt: TR-FRET cAMP assay (LANCE Ultra), inhibition of forskolin-stimulated cAMP on MOP (μ-opioid receptor)

Regarding `CN(C(=O)/C=C/c1ccoc1)[C@@H]1CC[C@@]2(O)[C@H]3Cc4ccc(O)c5c4[C@@]2(CCN3CC2CC2)[C@H]1O5` [Nalfurafine], the values for the EC50 on DOP (δ-opioid receptor) and on MOP (μ-opioid receptor) were 132 nM and 7.8 nM, respectively.
